Experimental data as given in US8158577B2, “Modulation of cartilage homeostasis by active domains of cell binding extracellular matrix molecules” (priority 2004, dated 2012).
Entries after “also recorded” stand apart in the source; their conditions may differ.

Legend:
[1] = system: K105 cells; assay: Effect on K105 cells already adherent to chondroadherin, light microscopy time study (FIG. 7, 9, 10); type: cell-based, human; conditions: for spreading and aggregation or detaching of k105 cells adherent to chondroadherin (FIG. 10): peptide, anti β1 antibody or 5 mM EDTA added after 30 min, light microscopy after 1 and 3 hours; for spreading, migration and aggregation of k105 cells adherent to chondroadherin: peptide 250 μg/ml added after 30 min adhesion, light microscopy after 1, 3 and 20 hours
Description: (§1) To test cell binding, the chondrosarcoma cells or bovine chondrocytes were suspended in PBS containing 0.1% BSA, 25 U/ml collagenase and added to the wells (50,000/well), in the absence or presence of various peptide pools or the synthetic peptides (200, 100, 50, 25, 12.5 μg/ml). Non-adherent cells were removed after 1 hour and adhesion was determined by measuring lysosomal N-acetylglucosaminidase (12). Adhesion and spreading was visualized by light microscopy. In the time studies, k105 cells were allowed to adhere for 30 minutes, unbound cells were removed and medium without serum supplemented with or without peptides (250 μg/ml), β1 integrin antibody (clone P4C10, Gibco BRL), EDTA (5 mM) was added. Cell morphology was visualized by light microscopy after 1, 3 and 20 hours.
Tissue culture dishes were coated with 5 μg/ml chondroadherin expressed in E. coli and blocked for non-specific binding with BSA. The k105 cells were suspended in PBS containing 0.1% BSA, and added to the wells (50,000/well). Nonadherent cells were removed after 30 min by washing, plain medium without serum with or without peptides (250 μg/ml) was added and bound cells were visualized by light microscopy after 1, 3 and 20 hours.
Tissue culture dishes were coated with 5 μg/ml chondroadherin expressed in E. coli and blocked for non-specific binding with BSA. The cells were suspended in PBS containing 0.1% BSA, and added to the wells (50,000/well). Nonadherent cells were removed after 30 min by washing, plain medium without serum with or without peptides (250 μg/ml) was added and bound cells were visualized by light microscopy after 1, 3 and 20 hours. […] The activity for integrin binding is located in the C-terminal eight residues of the sequence involving the WLEAK (SEQ ID No. 1) sequence.
Tissue culture dishes were coated with 5 μg/ml chondroadherin expressed in E. coli and blocked for non-specific binding with BSA. The k105 cells were suspended in PBS containing 0.1% BSA, and added to the wells (50,000/well). Nonadherent cells were removed after 30 min by washing, peptide, anti β1 antibody, 5 mM EDTA or plain medium without serum was added and bound cells were visualized by light microscopy after 1 and 3 hours.

[2] = system: K105 cells; assay: Adhesion of K105 cells to chondroadherin in the presence of synthetic peptide (FIG. 3, 5A-5B, 13); type: cell-based, human; conditions: 1 hour at 37° C.; for adhesion of k105 cells to chondroadherin in the presence of peptide: peptide 200, 100, 50, 25, 12.5 μg/ml
Description: Human cells (K9) originating from a human chondrosarcoma were a kind gift from Drs. Sven Inerot and Anders Lindahl, The Salgrenska University Hospital Gothenburg, Sweden. The K9 cells were cultured in Dulbeccos Modified Eagle Medium: Nutrient Mixture F12 (DMEM/F12 1:1) with GLUTAMAX I, supplemented with 10% fetal calf serum, 25 μg/ml ascorbic acid, 50 IU of penicillin and 50 μg/ml streptomycin (Life Technologies, Inc.). A different human cells line (K105) originating from a human chondrosarcoma was a kind gift from Dr. Sven Inerot, The Salgrenska University Hospital, Gothenburg, Sweden. The K105 cells were cultured in a mix of 40% Dulbeccos Modified Eagle Medium, 40% Minimum Essential Media (MEM) alpha Medium, 10% Nutrient Mixture F1 supplemented with 100 nM hydrocortisone, 100 ng/ml insulin, 10% fetal calf serum, 25 μg/ml ascorbic acid, 50 IU of penicillin and 50 μg/ml streptomycin (Life Technologies, Inc.). To harvest cells, culture dishes were rinsed three times with Ca^2+/Mg^2+-free PBS and the cells were incubated with 0.5% trypsin and 1 mM EDTA for 5 min. Detached cells were suspended in PBS containing 1 mg/ml trypsin inhibitor (Sigma) and then washed in PBS. To remove membrane-bound collagens the cells were treated with collagenase 100 U/ml (CLSPA; Worthington Biochemical Corp., Lakewood, N.J.) in PBS, 30 min. 37° C. and then washed in PBS.
(§2) Tissue culture 48-wells dishes (Nunclon, Nunc, Denmark) were coated overnight with 5 μg/ml chondroadherin in 4M Guanidine-HCl, 50 mM sodium acetate, pH 5.8, or for native protein in PBS. Alternatively coating was with 5 μg/ml collagen type II in PBS followed by after-coating with 0.5% BSA in PBS for 3 hours. Collagen type II was isolated from bovine nasal cartilage by pepsin digestion (11). Bacterially expressed chondroadherin was isolated as described above. Recombinant chondroadherin expressed in EBNA cell was cloned and purified as described elsewhere (8).
as §1
Study design: Tissue culture dishes (48-wells) were coated with 5 μg/ml chondroadherin expressed in E. coli and blocked for non-specific binding with BSA. […] were suspended in PBS containing 0.1% BSA, 25 U/ml collagenase and added to the wells (50,000/well) in the presence of synthetic peptide to be tested and allowed to adhere for 1 hour at 37° C. Nonadherent cells were removed by washing, and adhesion was determined by analyzing lysosomal hexosaminidase.
A 12-mer peptide (1947.01) plus an N-terminal cysteine (CQLRGLRRWLEAK) (SEQ ID NO. 3) representing the candidate sequence identified by mass spectrometry were synthesized and its ability to inhibit cell adhesion was determined. Tissue culture dishes were coated with 5 μg/ml chondroadherin expressed in E. coli and blocked for non-specific binding with BSA. The cells were suspended in PBS containing 0.1% BSA, 25 U/ml collagenase and added to the wells (50,000/well) in the presence of synthetic peptide (200, 100, 50, 25, 12.5 μg/ml) and allowed to adhere for 1 hour at 37° C. Nonadherent cells were removed by washing, and adhesion was determined by analyzing lysosomal hexosaminidase. […]

[3] = system: bovine chondrocytes; assay: Adhesion of bovine chondrocytes to human chondroadherin with or without cell binding peptides (FIG. 6); type: cell-based; conditions: peptide 250 μg/ml, 1 hour at 37° C., 100,000 cells/well
Description: Bovine chondrocytes were isolated by collagenase (CLS1; Worthington Biochemical Corp., Lakewood, N.J.) digestion of articular cartilage from 4-6 month old calves as described (10). Briefly, cartilage slices were digested for 16 hours with collagenase in EBSS (Earle's balanced salt solution, GIBCO BRL Gaithersburg, Md.). The cells were filtered through a 100 μm nylon filter, washed three times in PBS containing 0.2% BSA (SERVA).
(§3) To test cell binding, the chondrosarcoma cells or bovine chondrocytes were suspended in PBS containing 0.1% BSA, 25 U/ml collagenase and added to the wells (50,000/well), in the absence or presence of various peptide pools or the synthetic peptides (200, 100, 50, 25, 12.5 μg/ml). Non-adherent cells were removed after 1 hour and adhesion was determined by measuring lysosomal N-acetylglucosaminidase (12). Adhesion and spreading was visualized by light microscopy. […]
Tissue culture dishes were coated with 5 μg/ml chondroadherin expressed in E. coli or collagen type II and blocked for non-specific binding with BSA. […] Adhesion was determined by analyzing lysosomal hexosaminidase. Adhesion is expressed as number of cells, 100,000 cells/well was seeded. […]

[4] = system: K105 cells; assay: Adhesion of K105 cells to collagen type II in the presence of synthetic peptide (FIG. 5C-5D); type: cell-based, human; conditions: peptide 250 μg/ml, 1 hour at 37° C.
Description: as §2, §3
Tissue culture dishes were coated with 5 μg/ml chondroadherin expressed in E. coli or collagen type II and blocked for non-specific binding with BSA. […] Spreading was visualized by light microscopy, and adhesion was determined by analyzing lysosomal hexosaminidase. Adhesion is expressed as number of cells where the data represent the average of two wells. […]

[5] = system: K105 cells; assay: Adhesion of K105 cells to the coated cell binding peptides (FIG. 8); type: cell-based, human
Description: Tissue culture dishes were coated with 33 μg/ml (20 µM) peptide solution. The cells (50,000/well) were suspended in PBS containing 0.1% BSA, 25 U/ml collagenase and added to the wells in the presence or absence of synthetic peptide (250 μg/ml) and allowed to adhere for 1 hour at 37° C. Nonadherent cells were removed by washing. Spreading was visualized by light microscopy.

O=C(O)CN(CCN(CC(=O)O)CC(=O)O)CC(=O)O [EDTA, reference compound]
spreading and aggregation or detaching of k105 cells adherent to chondroadherin (FIG. 10) [1]: cells detaching

Ac-[CQLRGLRRWLEAKASRPDATC]-NH2 (Ac-CQLRGLRRWLEAKASRPDATC-NH2; also: cyclised (brackets), bond type not given here; listed as Homo sapiens) [SEQ ID No. 12]
inhibitory effect on K105 cell adhesion to chondroadherin (Example II, FIG. 13) [2]: inhibitory effect

CQLRGLRRWLEAK (N-terminal cysteine; listed as Homo sapiens) [12-mer peptide plus an N-terminal cysteine]
spreading, migration and aggregation of k105 cells adherent to chondroadherin [1]: stimulated the cells to form aggregate; also recorded: prevented spreading and induced cells to form aggregate
spreading and aggregation or detaching of k105 cells adherent to chondroadherin (FIG. 10) [1]: prevented spreading and the cells formed aggregate
bovine chondrocyte adhesion to chondroadherin in the presence of peptide [3]: decreased
k105 cell adhesion to chondroadherin in the presence of peptide ([2]; peptide 250 μg/ml): decreased
adhesion of k105 cells to chondroadherin in the presence of peptide [2]: able to inhibit
adhesion of k105 cells to chondroadherin in the presence of peptide ([2]; listed as 12-mer peptide): decreased in a dose dependent manner
k105 cell adhesion to collagen type II in the presence of peptide [4]: not significantly affected
adhesion and shape of k105 cells plated on the peptide ([5]; dishes coated with 33 μg/ml peptide, 1 hour at 37° C.): adhere and remain round
inhibition of k105 adhesion to the coated peptide by the same peptide in solution ([5]; peptide in solution 250 μg/ml): inhibited

H-LRRWLEAK-OH (listed as Homo sapiens) [SEQ ID No. 2]
spreading, migration and aggregation of k105 cells adherent to chondroadherin [1]: prevented spreading and induced cells to form aggregate

H-QLRGLRRWLEAK-OH (listed as Homo sapiens) [SEQ ID No. 3]
spreading, migration and aggregation of k105 cells adherent to chondroadherin [1]: prevented spreading and induced cells to form aggregates

QLRGLRRW (listed as Homo sapiens)
spreading, migration and aggregation of k105 cells adherent to chondroadherin [1]: no effect
